What was measured:
[1] = HPLC RCP of 99mTc-labelled depreotide with hydrophilic thioether additives; type: physicochemical; details: for 3.5 hr RCP / 6.5 hr RCP / Initial RCP: 99mTc-depreotide kit, additive 4 mg in 100 μL, heated
Procedure: [drawing 16] These compounds and L-methionine were tested for their ability to stabilize ^99mTc-labelled depreotide. Each hydrophilic thioether was dissolved in water made up at 40 mg/mL and adjusted to pH 7 with HCl or NaOH. Each hydrophilic thioether (4 mg in 100 μL) was added to a formulated kit vial containing the peptide (“control” formulation in Table 1). To the control vials were added 100 μL water.

[2] = Radiochemical purity (RCP) by reversed phase HPLC of 99mTc-labelled depreotide kits with gentisic acid; type: physicochemical; details: included in formulated kits
Procedure: Lyophilized kit vials were prepared containing depreotide, GA, and other components as described in Table 1. Formulations were adjusted to pH 7.4 or 8.5 (as noted) prior to lyophilization.

[3] = HPLC RCP of 99mTc-labelled depreotide kits with L-methionine after accelerated temperature (40° C.) kit storage; type: physicochemical; details: lyophilized kits stored at 40° C. prior to radiolabelling
Procedure: Lyophilized kits were prepared containing depreotide, L-methionine (Met), and other components as described in Table 5. All formulations were adjusted to pH 7.4 prior to lyophilization. The kits were stored for one week at 40° C. Some kits were also stored at −10° C. as controls.
The lyophilized kits were radiolabelled with ^99mTc by reconstitution with 1.0 mL technetium ^99mTc sodium pertechnetate (Technelite®) containing approximately 50 mCi ^99mTc and incubation in a boiling water bath (10 min).

[4] = HPLC RCP of 99mTc-labelled bisamine bisthiol non-peptide chelator with L-methionine; type: physicochemical
Procedure: L-methionine was tested for its ability to stabilize a ^99mTc-labelled non-peptide chelator (4-(butanoic acid)-2,2,9,9 tetramethyl-4,7-diaza-1,10-decanedithiol) having the structure.
The non-peptide chelator was radiolabelled with ^99mTc in the presence and absence of L-methionine using the placebo vial heated preparation procedure as described in Example 6.

[5] = HPLC RCP of 99mTc-labelled benzodiazepinedione derivative kits with L-methionine; type: physicochemical; details: formulated kits
Procedure: L-methionine was tested for its ability to stabilize a ^99mTc-labelled glycoprotein IIb/IIIa receptor-binding benzodiazepinedione derivative 1-[(carboxyglycyl-glycyl-glycyl-cysteinamide)methyl]-4-(2-carboxyethyl)-7-[(4-amidinophenyl)methyl]-3,4-dihydro-1H-1,4-benzodiazepine-2,5-dione trifluoroacetate, having the structure.
All formulations were adjusted to pH 7.4 prior to lyophilization.
(§1) The lyophilized kits were radiolabelled with ^99mTc by reconstitution with 1.0 mL technetium ^99mTc sodium pertechnetate (Technelite®) containing approximately 50 mCi ^99mTc and heating in a boiling water bath for 10 minutes.

[6] = HPLC RCP of 99mTc-labelled depreotide kits with L-methionine; details: formulated kits stored under normal conditions (≦−10° C.)
Procedure: Lyophilized kit vials were prepared containing depreotide, L-methionine (Met), and other components as described in Table 3. All formulations were adjusted to pH 7.4 prior to lyophilization.
as §1, with “minutes. Some of the formulations were also radiolabelled in a room temperature preparation (allowed to stand at room temperature 30 minutes following reconstitution).” for “minutes.”

[7] = HPLC RCP of 99mTc-labelled glycoprotein IIb/IIIa receptor-binding peptide with L-methionine; type: physicochemical
Procedure: L-methionine was tested for its ability to stabilize a ^99mTc-labelled glycoprotein IIb/IIIa receptor-binding peptide having the structure.
Lyophilized kit vials were prepared containing the peptide (50 μg), sodium glucoheptonate dihydrate (10 mg), stannous chloride dihydrate (50 μg), and edetate disodium dihydrate (100 μg). The formulation was adjusted to pH 7.4 prior to lyophilization.
The lyophilized kits were radiolabelled with ^99mTc in the presence and absence of L-methionine. To the Met preparation was added 4 mg methionine (in 100 μL saline) and 100 μL ethanol. To the control preparation was added 100 μL ethanol and 100 μL saline to account for the additional saline or ethanol added with the L-methionine. Both vials were then reconstituted with 1.0 mL technetium ^99mTc sodium pertechnetate (Technelite®) containing approximately 50 mCi ^99mTc and allowed to incubate for 30 minutes at room temperature.

[8] = HPLC RCP of 99mTc-labelled monoamine, diamide, single thiol peptide chelator with L-methionine; type: physicochemical
Procedure: L-methionine was tested for its ability to stabilize a ^99mTc-labelled monoamine, diamide, single thiol peptide chelator having the structure.
Lyophilized kit “placebo” vials were prepared containing sodium glucoheptonate dihydrate, edetate disodium dihydrate, and stannous chloride dihydrate at the concentrations set forth in Table 1 (control formulation).
The peptide chelator was radiolabelled with ^99mTc in the presence and absence of L-methionine. The peptide chelator was dissolved in water at a concentration of 1 mg/mL, and 50 μg (50 μL) of the peptide was added to each of three placebo vials. Ethanol and L-methionine were added to the control and methionine preparations as described in Example 5. In addition, 100 μL phosphate buffered saline (PBS) was added to each preparation. The vials were reconstituted with 0.9-1.0 mL ^99mTc sodium pertechnetate (Technelite®) containing approximately 50 mCi ^99mTc, and heated in a boiling water bath for ten minutes.

Row | Structure (SMILES) | Effect on radiolabelling yield and stability of 99mTc-labelled peptide (depreotide) [1] | 3.5 hr RCP [1] | 6.5 hr RCP [1] | Initial RCP [1] | also measured
1 | CSCCC=O [3-(methylthio)propionaldehyde, reference compound] | no effect |  |  |  | 
2 | O=C(O)c1cc(O)ccc1O [gentisic acid, Gentisic acid] |  |  |  |  | Effect on radiolabelling yield and stability of 99mTc-depreotide [2]: decreases
3 | CSCC(O)CO (stereo not drawn) [3-Methylthio-1,2-propanediol, 3-methylthio-1,2-propanediol] | increase | 84% | 80.9% | 89.1% | 
4 | C[S+]([O-])CC[C@H](N)C(=O)O (stereo partly drawn) [Methionine sulfoxide, reference compound] | no effect |  |  |  | 
5 | CSCC[C@H](N)C(=O)O [L-methionine] |  | 90.4% | 89.3% | 95% | Stabilization of 99mTc-depreotide [3]: does not stabilize; Effect on radiolabelling yield and stability of 99mTc-labelled non-peptide chelator [4]: increases; HPLC RCP (%) 0.5 hr ([4]; 99mTc-non-peptide chelator, 4 mg methionine or none, heated, 0.5 hr): 66.7%; HPLC RCP (%) 3 hr ([4]; 99mTc-non-peptide chelator, 4 mg methionine or none, heated, 3 hr): 70.0%; HPLC RCP (%) 6 hr ([4]; 99mTc-non-peptide chelator, 4 mg methionine or none, heated, 6 hr): 70.8%; HPLC RCP (%) 9 hr ([4]; 99mTc-non-peptide chelator, 4 mg methionine or none, heated, 9 hr): 70.4%; Effect on radiolabelling yield and stability of 99mTc-labelled benzodiazepinedione derivative [5]: increases; Effect on radiolabelling yield and stability of 99mTc-depreotide [6]: increases; Effect on radiolabelling yield and stability of the 99mTc-peptide [7]: increases; HPLC RCP (%) 0.5 hr ([7]; 99mTc-GPIIb/IIIa peptide, 4 mg methionine or none, room temperature 30 min, 0.5 hr): 96.7%; HPLC RCP (%) 3.5 hr ([7]; 99mTc-GPIIb/IIIa peptide, 4 mg methionine or none, room temperature 30 min, 3.5 hr): 96.9%; HPLC RCP (%) 6.5 hr ([7]; 99mTc-GPIIb/IIIa peptide, 4 mg methionine or none, room temperature 30 min, 6.5 hr): 96.2%; Effect on radiolabelling yield and stability of 99mTc-labelled peptide chelator [8]: increases; HPLC RCP (%) 0.5 hr ([8]; 99mTc-peptide chelator, 4 mg L-methionine or none, heated, 0.5 hr): 98.4%; HPLC RCP (%) 3 hr ([8]; 99mTc-peptide chelator, 4 mg L-methionine or none, heated, 3 hr): 97.2%; HPLC RCP (%) 6 hr ([8]; 99mTc-peptide chelator, 4 mg L-methionine or none, heated, 6 hr): 95.5%; HPLC RCP (%) 9 hr ([8]; 99mTc-peptide chelator, 4 mg L-methionine or none, heated, 9 hr): 92.8%
6 | CCSCCN [2-(Ethylthio)ethylamine] | increase | 94.2% | 93.3% | 92.8% | 

The next lines start with results.

Row | Effect on radiolabelling yield and stability of 99mTc-labelled peptide (depreotide) [1] | 3.5 hr RCP [1] | 6.5 hr RCP [1] | Initial RCP [1] | Structure (SMILES) | also measured
7 | increase | 93.9% | 90.7% | 94.1% | CSCC[C@H](N)CO [Methioninol, methioninol] | 
8 | no effect |  |  |  | CS(=O)(=O)CC[C@H](N)C(=O)O [methionine sulfone, reference compound] | 

From patent publication US7351398B2, “Stabilization of radiopharmaceutical compositions using hydrophilic thioethers” (CIS bio international, priority 2000, dated 2008)
